Assay results reported in patent publication US8455450B2, “Methods for obtaining a therapeutically effective amount of hematopoietic precursor cells and long term engraftment thereof” (Biokine Therapeutics Ltd., priority 2006, dated 2013).
Bridge positions count the residues as written; N and C are the ends. Square brackets hold non-standard residues; d marks the D form. Peptide text beside a SMILES is read from it. * marks the point of attachment. 2Nal = N[C@@H](Cc1ccc2ccccc2c1)C(=O)O; Benzoyl(4-F) = O=C(c1ccc(F)cc1)*; Cit = NC(=O)NCCC[C@H](N)C(=O)O

Assays:
PC3 cells = experiment: MIP3α secretion by PC3 prostate cells (ELISA); type: cell-based
Text: (§1) A PC3 prostate cell line that overexpresses high levels of CXCR4 was generated. […] FIG. 1A presents FACS histograms of PC3 cells (left panel) and a single cell clone with stable overexpression of CXCR4, GFP and luc genes (PC3-CXCR4.5, right panel) that were stained for the control (IgG2a-PE, full histograms) and CXCR4 (IgG2a-12G5, empty histograms) antibodies.
(§2) In this example, regulation of the chemokine MIP3α (macrophage inflammatory protein 3α) was examined. […] In FIG. 1B, PC3 (left panel) and PC3-CXCR4.5 (right panel) cells were stimulated with the indicated concentrations of CXCL12 for 48 hours and MIP3α secretion was assessed by ELISA. The results represent the average of triplicates±STDEV.
(§3) The effects of the CXCR4 antagonist AMD3100 and of 4F-benzoyl-TN14003 (4FB-TN14003), hitherto known as a CXCR4 antagonist, on MIP3α secretion were further tested. […] In FIG. 10, CXCR4 signaling in PC3 (left panel) and PC3-CXCR4.5 (right panel) cells was inhibited with anti-CXCL12 antibodies (αCXCL12) and Pertussis toxin (PTX) treatments alone or in combination with CXCL12, as indicated. Secretion of MIP3α was assessed by ELISA. The results represent the average of triplicates±STDEV.

PC3-CXCR4.5 cells = experiment: MIP3α secretion by CXCR4-overexpressing PC3-CXCR4.5 cells (ELISA); type: cell-based; conditions: transfection with CXCR4-specific or control siRNA
Text: as §1, §2, §3
Spontaneous secretion of MIP3α is CXCL12 and PTX independent in these cells.

white-blood-cells (WBC) = type: in vivo
proerythroblast cells = experiment: Proerythroblasts in blood, FACS with anti-Ter-119; type: in vivo, C57BL/6 mice; conditions: 5 mg/kg s.c.; 2 hours
Protocol: To assess the number of cells in blood and BM, and to distinguish between the different populations, FACScan flow cytometer was used. Cells derived from these organs were gated according to forward scatter and side scatter to exclude dead cells and to determine granulocytes, mononuclear cells and activated macrophage populations. The number of each cell population was counted. Cells were also stained in 0.1 ml FACS buffer with fluorescence antibodies directed against Gr-1, CD3, mac-1, F4/80, Nk1.1, B220 and Ter-119 molecules or matched isotype controls (all from eBiosience, San Diego, Calif.) for 30 min and washed with FACS buffer.
C57BL/6 mice were s.c. injected with 5 mg/kg 4F-benzoyl-TN14003. 2 hours later blood was obtained and the number of proerythroblast cells was evaluated by FACS following staining with anti-Ter-119 (FITC). Data are expressed as average±SD of five mice/group.

Streptococcus A = experiment: Survival of mice upon bacterial infection in a chemotherapy model; type: in vivo; conditions: CPM 250 mg/kg total; Streptococcus A 10^8/mouse s.c. day 0; 4F-benzoyl-TN14003 5 mg/kg s.c., G-CSF 5 μg/mouse
Protocol: Mice received a total dose of 250 mg/kg CPM by two 0.25 ml intra-peritoneal injections scheduled at day −5 (150 mg/kg) and day −2 (100 mg/kg). Mice were subcutaneously treated with 0.2 ml of 4F-benzoyl-TN14003 (5 mg/kg), alone or in combination with G-CSF (5 μg/mouse), at the time points indicated in FIG. 15A. On day 0, Streptococcus A were subcutaneously injected (10^8/mouse) and the mice were then treated as detailed in FIG. 15A.

[1] = test system: BM cells on stromal cells (14F1.1); experiment: In vitro production of progenitors and mature cells from BM cells seeded on stromal cells (14F1.1); type: cell-based
Protocol: More specifically, the number of colonies was assayed by collecting the cells (10^5/plate) 4 days after treatment form the treated and control (untreated) plates, and evaluating the number of progenitor cells using a colony-forming cell assay. Burst forming units erythrocyte (BFU-E), colony forming units granulocyte-macrophage (CFU-GM), colony forming units megakaryocytes (CFU-M), and colony forming units granulocyte-erythrocyte-monocyte-macrophage (CFU-GEMM) were assayed by plating the cells in Iscove's-modified Dulbecco's Medium (IMDM) containing 1% methylcellulose, 15% FBS, 1% bovine serum albumin (BSA), 3 U/mL rh EPO, […] 2-mercaptoethanol, 2 mM L-glutamine, 50 ng/mL rmSCF, 10 ng/mL rmIL-3, […] rh Insulin, 10 ng/mL rh IL-6, and […] Human Transferrin (Methocult GF M3434; StemCell Technologies Inc.). The cultures were incubated at 37° C. in a humidified atmosphere containing 5% CO2. Seven days later, typical colonies were visually scored by morphologic criteria using a light microscope and the frequency of CFU was calculated. Staining colonies with benzidine dihydrochloride (Sigma, Israel) was used to localize hemoglobin-containing cells.

[2] = 5 mg/kg s.c. 4F-benzoyl-TN14003 or AMD3100, 2 h, G-CSF 2.5 μg s.c. twice a day for 4 days, combination 18 h after last G-CSF
[3] = peak at 10 mg/kg s.c., 2 hours post-injection

In the case of `N=C(N)NCCC[C@H](NC(=O)[C@@H]1CSSC[C@H](NC(=O)[C@H](Cc2ccc3ccccc3c2)NC(=O)[C@H](CCCNC(=N)N)NC(=O)[C@H](CCCNC(=N)N)NC(=O)c2ccc(F)cc2)C(=O)N[C@@H](Cc2ccc(O)cc2)C(=O)N[C@@H](CCCNC(N)=O)C(=O)N[C@@H](CCCCN)C(=O)N[C@H](CCCCN)C(=O)N2CCC[C@H]2C(=O)N[C@@H](Cc2ccc(O)cc2)C(=O)N[C@@H](CCCNC(=N)N)C(=O)N[C@@H](CCCNC(N)=O)C(=O)N1)C(N)=O` [4F-benzoyl-TN14003, 4F-benzoly-Arg-Arg-Nal-Cys-Tyr-Cit-Lys-DLys-Pro-Tyr-Arg-Cit-Cys-Arg-NH2] ({Benzoyl(4-F)}-RR[2Nal]CY[Cit]K[dK]PYR[Cit]CR-NH2; disulfide 4-13), the MIP3α secretion (PC3 cells) is reported as “induced in both cell lines MIP3α secretion in an agonist manner”, the “CXCR4 dependence of induced MIP3α secretion” value (PC3-CXCR4.5 cells) is reported as “CXCR4 dependent” and the “MNCs in the blood, full return to the baseline level” value (white-blood-cells (WBC); 5 mg/kg s.c.) is reported as 4 h. For the same compound, the “activated macrophages in the blood, return to the baseline level” value (white-blood-cells (WBC); 5 mg/kg s.c.) was 24 h, the “activated macrophages in the blood, time of peak” value (white-blood-cells (WBC); 5 mg/kg s.c.) was 1 h and the “neutrophils in the blood, decrease to the baseline level” value (white-blood-cells (WBC); 5 mg/kg s.c.) was 24 h. The “neutrophils in the blood, time of peak” value (white-blood-cells (WBC); 5 mg/kg s.c.) was 1 to 2 h, the “Activated macrophages, fold elevation of cell counts from control” value (white-blood-cells (WBC); [2]) was 4.2 fold and the “MNC, fold elevation of cell counts from control” value (white-blood-cells (WBC); [2]) was 2.3 fold. For the same compound, the “Neutrophils, fold elevation of cell counts from control” value (white-blood-cells (WBC); [2]) was 6.1 fold, the “mononuclear cells (MNCs) in the blood, fold elevation from control” value (white-blood-cells (WBC); 5 mg/kg s.c., after 30 minutes) was 2 fold and the “number of neutrophils in the blood, fold change from control at peak” value (white-blood-cells (WBC); 5 mg/kg s.c., peak after 1 to 2 hours) was greater than 12 fold. The “number of WBC in blood, fold elevation compared to control mice (peak of dose response)” value (white-blood-cells (WBC); dose 5 mg/kg s.c., 2 hours post-injection) was 2.5 fold, the “number of white blood cells within the BM” value (white-blood-cells (WBC); intact mice, 5 mg/kg s.c.) was “no changes were observed” and the “MNCs in blood, fold change from control” value (white-blood-cells (WBC); [3]) was 3.5 fold. For the same compound, the “absolute number of neutrophils in blood, fold change compared to control” value (white-blood-cells (WBC); [3]) was roughly 8 fold, the “activated macrophages in blood, fold change from control” value (white-blood-cells (WBC); [3]) was 6 fold and the “total WBC in blood, full return to the baseline level” value (white-blood-cells (WBC); single dose 5 mg/kg s.c.) was 24 h. The “number of total WBC in blood, fold change from control” value (white-blood-cells (WBC); single dose 5 mg/kg s.c., after 30 minutes) was 2 fold, the “mobilization of T cells, B cells and monocytes (FACS)” value (white-blood-cells (WBC); staining CD3, B220, Mac-1) was “had an effect on the mobilization of T cells, B cells and monocytes” and the “mobilization of NK cells (FACS)” value (white-blood-cells (WBC); staining Nk1.1) was “had no effect on the mobilization of NK cells”. For the same compound, the “number of proerythroblasts (Ter119) in blood, fold elevation from the control level” value (proerythroblast cells) was 3.2 fold, the “survival of mice after Streptococcus A infection” value (Streptococcus A) was “save the mice from death induced by the pathogen” and the “differentiation and proliferation of BM cells on stromal cells (micrographs)” value ([1]; representative experiment, FIG. 17E) was “differentiating and proliferating”. For the same compound, the “production of GR-1 and Ter119 positive cells and progenitors” value ([1]; stromal cells (14F1.1) seeded with BM cells, 4F-benzoyl-TN14003 10 microgram/ml, G-CSF 100 ng/ml, 4 days) was “stimulated the production of GR-1 and Ter119 positive cells as well as progenitors”.
